For one data set, the system named is hippocampal neurons. The data set is described as follows: Toxicity of transduced peptides to neurons in primary hippocampal cultures (NeuN immunostaining, quantitative image analysis). Conditions: primary culture; read-out: LC50 for hippocampal neurons. The format is cell-based. The method, then: (§1) Hippocampal or cortical neurons derived from 17-day old rat embryos were plated in modified minimum essential media (MEM-PAK) supplemented with 5% horse serum. Three days later, the cultures were treated with 10 μM cytosine arabinoside (AraC). Twenty-four h later the cells were treated with the peptide conjugates and incubated for an additional 24 or 48 h. Cells were incubated in the presence of 50 μM of the general caspase inhibitor BOC-Asp(Ome)-FMK (BAF) for 30 min prior to addition of peptides or with an equivalent volume of dimethylsulfoxide (DMSO) and then maintained in the presence of the same concentration of the inhibitor for the duration of the experiment. In all experiments involving Aβ, a 1 mM Aβ42 stock solution was used that had been incubated at 37° C. for 48 h and then stored at 4° C. to allow for the formation of Aβ fibrils. Aβ42 was purchased from AnaSpec (San Jose, Calif.).
(§2) Peptides were synthesized and purified at the Stanford University Protein and Nucleic Acid (PAN) Facility. All peptide stocks were solubilized in water at 1 or 10 mM concentration. […] A control peptide used was a fusion of the human immunodeficiency virus-1 TAT protein (HIV-TAT) delivery peptide sequence (Hileman et al., FEBS Lett. 415:145-154 (1997) and the first helix of the p75 receptor intracellular domain.
Hippocampal cultures were fixed in 4% paraformaldehyde in 1× phosphate-buffered saline (PBS) for 20 min at room temperature (RT). Cells were then rinsed in 1× PBS and then washed once in 1× Tris-buffered saline (TBS) followed by blocking in 10% donkey serum (Jackson ImmunoResearch Labs, West Grove, Pa.) with 0.1% Triton X-100 in 1×TBS for 1 h at RT. Cultures were incubated overnight in the presence of rabbit anti-GFAP (Sigma, St. Louis) at 1:800 dilution and mouse anti-NeuN (Chemicon, Temecula, Calif.) at 1:100 at 4° C. Negative controls were incubated in 2 mg/ml rabbit and mouse preinimune IgGs (Sigma, St. Louis). All primary antibodies were diluted in 1×TBS containing 10% donkey serum. Cultures were washed for 90 min in 4 changes of 1×TBS and incubated in the presence of donkey anti-rabbit IgG conjugated to Cy3 and donkey anti-mouse IgG conjugated to FITC (Jackson ImmunoResearch Laboratories, Inc., West Grove, Pa.), at 1:250 and 1:400, respectively, in 1×TBS containing 1% donkey serum for 1 h at RT. Cells were washed for 90 min in 4 changes of 1×TBS and mounted in VectaShield-DAPI mounting medium (Vector Laboratories, Burlingame, Calif.). Images were acquired using Nikon Eclipse-800 microscope and Optronics MagnaFire camera and software, and analyzed using Compix Simple PCI software. The total surface area corresponding to red and green fluorescence in each confocal image was determined by image analysis using Simple PCI software (Compix, Inc., Philadelphia).
To investigate whether this was due to a greater sensitivity of neurons than glial cells to DP-APPC31-induced death, 3-day-old rat hippocampal cultures were exposed to increasing concentrations of DP-APPC31 or control DP peptide and fixed 48 h after transduction. The fixed cultures were then immunostained with antibodies specific for GFAP (red) and NeuN (green). A quantitative assessment of the total area of red and green fluorescence present in low-magnification confocal images of representative fields obtained from three independent experiments was performed using a digital image analysis system (SimplePCl, Compix, Inc, Philadelphia).
APLP1C31 induces death in primary hippocampal cultures. […] If this event occurs in vivo, APLP1 would have the potential to generate a pro-apoptotic C-terminal peptide homologous to APPC31. To deterinine whether the peptide generated by caspase cleavage of APLP1 is toxic, a fusion of APLP1C31 to the Antennapedia delivery peptide (DP-APLP1C31) was generated and assayed in protein transduction experiments. […]

A further data set deals with glial cells. The data set is described as follows: Toxicity of transduced peptides to glial cells in primary hippocampal cultures (GFAP immunostaining, quantitative image analysis). The format is cell-based, rat. Conditions: rat, astrocytes (glial cells in primary hippocampal cultures). The method, then: as §1
(§3) Peptides were synthesized and purified at the Stanford University Protein and Nucleic Acid (PAN) Facility. All peptide stocks were solubilized in water at 1 or 10 mM concentration. […]
Hippocampal cultures were fixed in 4% paraformaldehyde in 1× phosphate-buffered saline (PBS) for 20 min at room temperature (RT). […] Images were acquired using Nikon Eclipse-800 microscope and Optronics MagnaFire camera and software, and analyzed using Compix Simple PCI software. The total surface area corresponding to red and green fluorescence in each confocal image was determined by image analysis using Simple PCI software (Compix, Inc., Philadelphia).
To investigate whether this was due to a greater sensitivity of neurons than glial cells to DP-APPC31-induced death, 3-day-old rat hippocampal cultures were exposed to increasing concentrations of DP-APPC31 or control DP peptide and fixed 48 h after transduction. […] A quantitative assessment of the total area of red and green fluorescence present in low-magnification confocal images of representative fields obtained from three independent experiments was performed using a digital image analysis system (SimplePCl, Compix, Inc, Philadelphia). […]

Data set [1] concerns 293T human embryonic kidney cells. The data set is described as follows: Toxicity of C31 peptide to 293T cells. In kind it is cell-based. The method, then:
as §2
Primary hippocampal or cortical neuronal culturesor 293 cells transduced with the different penetratin-peptide conjugates were assayed for viability at 24 and 48 h after transduction by trypan blue exclusion or by conversion of 3-[4,5-Dimethylthiazol-2-yl]-2,5-diphenyltetrazolium bromide; Thiazolyl blue (MTT, Sigma, St. Louis) to formazan by dehydrogenase enzymes (MTT, Sigma, St. Louis) and by the LIVE/DEAD assay (Molecular Probes, Eugene, Oreg.), which distinguishes live cells by the presence of intracellular esterase activity, which results in the conversion of the non-fluorescent cell permeant calcein-AM to the intensely green fluorescent calcein. Calcein is retained witlin live cells. Ethidium homodimer-1 (EthD-1) enters cells with damaged membranes and becomes intensely fluorescent when bonding to nucleic acids. EthD-1 is excluded by the intact plasma membrane of live cells. Media were removed and replaced by 4 μM EthD-1 and 2 μM calcein in PBS. […]

The test system of data set [2] is primary hippocampal cultures. The data set is described as follows: Viability of primary hippocampal cultures by trypan blue exclusion. In kind it is cell-based, rat. Conditions: preincubation with 5 μM Aβ for 24 h, then transduction in absence of Aβ; read-out: LC50 in primary cultures pre-exposed to sublethal fibrillar Aβ. The method, then:
as §1, §3
Aβ exacerbates the sensitivity of hippocampal cultures to C31 toxicity. […] Thirty-six hours later, the cultures were evaluated by the LIVE/DEAD assay. […] Cells were stained with Hoechst 33342 and scored for nuclear condensation.

For another data set, the system named is N2a neuroblastoma cells. The data set is described as follows: Annexin V-FITC staining of transfected N2a cells. Conditions: expression by transfection. The format is cell-based, mouse. The method, then: Mouse N2a neuroblastoma cells were grown at 37° C. and 5% CO2 in […] Dulbecco's modified Eagle's medium and 45% OptiMEM I (Life Technologies) supplemented with 10% fetal bovine serum and 2 mM glutamine. Plasmid constructs were introduced into the N2a cells with the LipofectAMINE plus transfection reagent (Life Technologies) according to the manufacturer's instructions.
N2a cells were plated on glass cover slips treated with polylysine and were transfected as described above. At 24 h after transfection, cells were directly stained with annexin V-FITC for apoptosis in tissue culture media, according to the manufacturer's instructions (annexin V-FITC Apoptosis Detection Kit; Calbiochem, La Jolla, Calif.). After being stained with annexin V-FITC, cells were fixed for 20 min in 4% parafoimaldehyde in phosphate-buffered saline and permeabilized in 0.5% Triton X-100 in phosphate-buffered saline for 5 min. After being blocked in 5% BSA in phosphate-buffered saline, the cells were incubated for 1 h at room temperature with CT15, diluted 1:2,000. In parallel, cells were stained with propidium iodide after annexin V staining and paraformaldehyde fixation but without permeabilization to verify membrane integrity; the combination of amnexin V staining and membrane integrity indicated apoptosis without secondary necrosis. The primary antibody was detected with Texas Red®-conjugated secondary antibody against rabbit (Molecular Probes, Eugene, Oreg.). Negative controls, which included preimmune serum and cells transfected with pcDNA3 (mock transfection), were assayed in parallel using the protocol described above. The cells were analyzed by confocal nmcroscopy using a BioRad MRC-1024 system. Cells in five random fields were counted for each slide, in duplicate for each condition. The number of cells positive and negative for APP or C31 and apoptosis (annexin V-FITC) were determined, and relative risk was calculated (RR=p1/p2)=concordant staining [(+/+) times (−/−)] divided by discordant staining [(+/−) times (−/+)].
Double-labeling of APP and annexin V in N2a cells after transfection was performed. N2a cells were transfected with either APP or C31 followed by staining with annexin V-FITC to visualize apoptotic cells. Transfected cells were immunolocalized with CT15 followed by Texas Red conjugated secondary antibody to visualize APP or C31 expression. When expressed in N2a cells, C31 but not APP is associated with apoptosis. A high proportion of C31 transfected cells are positive for amnexin V-FITC (green outline of the cell; RR=6.3), whereas in APP-expressing cells, annexin V-FITC staining is sparse (RR=0.77). In control cells transfected with pcDNA3 (mock transfection; control), there is no staining with annexin V-FITC and essentially no staining of endogenous APP at this antibody dilution. Images are representations of four different fields of view of each of three separate experiments.

The test system of the next data set is PTB domain of Fe65. Description: Binding of C31 to the PTB domain of Fe65. The source says: Binding assays can be used to confirm this observation with respect to the C31 peptide derived from APLP1.

No end group written: not given here.

Turning to AAVTPEERHLSKMQQNGYENPTYKFFEQMQN [C31], the CC50 was 1 to 2 µM in the data set on hippocampal neurons, 10 to 25 µM with glial cells, 50 to 100 µM in data set [1] and less than 0.5 µM in data set [2]. The “relative risk (RR) of annexin V-FITC staining with expression” value in the data set on N2a neuroblastoma cells is 6.3. Also, in the data set on N2a neuroblastoma cells (no tamoxifen or staurosporine, 24 h), the “annexin V-positive among construct-positive cells” value is 76±10%. The “binding to the PTB domain of Fe65” value with PTB domain of Fe65 is on record as “binds to the PTB domain of Fe65”.
